The values that follow come from US12559863B2, “Macrocyclic modulators of disease associated protein misfolding and aggregation” (RESQ BIOTECH, priority 2017, dated 2026).

Structures are written as SMILES. Where a SMILES comes first, the peptide text is derived from it.

One assay has as its target T1, Aβ42 (Homo sapiens, UniProt P05067).
T1 construct: one of the secondary products yields a 42-amino-acid-long peptide (Aβ42); purchased Eurogentec, Belgium; host or cells: chemical synthesis
Put plainly: Transmission electron microscopy of Aβ42. Particulars: 50 μM Aβ42 with 100 μM peptide, 30-d aged. The assay is classed as biochemical. The procedure: For TEM analysis, the 30-d aged 50 μM CD solutions of Aβ42 (with 100 μM of the selected peptides or without) was mixed well by pipetting. 2 μL of this solution were placed in a carbon-coated film on 200-mesh copper grids (Agar Scientific, UK) for 5 min. After adsorption, grids were washed in deionized water and negatively stained by applying a 2-μl drop of freshly prepared 1% (w/v) uranyl acetate (Sigma-Aldrich, USA) in Milli-Q water for 5 min. Excess fluid was blotted off, and grids were washed in deionized water and dried in air. Images were recorded using a FEI CM20 electron microscope (FEI, USA) with a Gatan GIF200 imaging filter (Gatan, USA), equipped with a Peltier-cooled slow-scan CCD camera.

The test system of assay [1] is C. elegans strain CL4176 (human Aβ42). In words: Dot blot analysis of total and oligomeric Aβ in C. elegans CL4176. Format: in vivo, Caenorhabditis elegans. The following applies: for accumulation level of total Aβ, CL4176: antibody 6E10; for accumulation level of oligomeric Aβ, CL4176: antibody AB9234. How it is done: CL4176 animals were allowed to lay eggs for 3 h on NGM plates containing either synthetic peptides or 0.26% DMSO. Paralysis was induced upon temperature up-shift and the progeny were exposed to either pure peptides or 0.26% DMSO until 50% of the control population was paralyzed. The animals were then collected and boiled in non-reducing Laemmli buffer. For dot blot analysis, 1-5 μg of protein lysates were spotted onto 0.2 μm nitrocellulose membranes (Bio-Rad, USA) after soaking into TBS pre-heated at 80° C. Immunoblotting was performed using the anti-Aβ antibody 6E10 (recognizes total Aβ) and the anti-amyloid protein, oligomer-specific antibody AB9234 (Merck Millipore, Germany). Actin was used as a loading control. Blots were developed with chemiluminescence by using the Clarity™ Western ECL substrate (Bio-Rad, USA). Quantification of the ratio of each detected protein to actin using the anti-actin antibody sc-1615 (Santa Cruz, Germany), and normalization to control appears next to each representative blot.

Another assay has as its target T2, Aβ42-GFP (Homo sapiens, UniProt P05067).
T2 construct: a chimeric fusion of the human Aβ(1-42) peptide (Aβ42) with GFP; expressed in transfected cells; host or cells: E. coli BL21(DE3)
Put plainly: High-throughput sequencing of pSICLOPPS vectors isolated after bacterial sorting for enhanced Aβ42-GFP fluorescence. The method, boiled down:
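E. coli BL21(DE3) expressing Aβ42-GFP from the T7 promoter was co-transformed with cyclic peptide libraries (0.002% L-arabinose, 0.1 mM IPTG at OD600 ~0.5, 37° C). High-fluorescence cells were sorted over repeated rounds. Plasmid peptide-encoding regions were then sequenced by Ion Torrent, discarding sequences with stop codons.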

T2 sequence (P05067 672-713 limits assumed): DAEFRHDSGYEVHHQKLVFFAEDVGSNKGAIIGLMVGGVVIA
T1 sequence (P05067 672-713 limits assumed): as above

Turning to `C[C@@H]1NC(=O)[C@H](CO)NC(=O)[C@H]([C@@H](C)O)NC(=O)[C@@H]2CCCN2C(=O)[C@H](CO)NC1=O` [AβC5-34, cyclo-SASPT] (cyclo(ASPTS)), the “Aβ42 fibrils by TEM” value at Aβ42 was “notably fewer, shorter and ill-developed”. Besides, in assay [1], the “accumulation level of total Aβ, CL4176” value is on record as “significant reduction of both Aβ species” and the “accumulation level of oligomeric Aβ, CL4176” value is given as “significant reduction of both Aβ species”. Further, at Aβ42-GFP (Table 2), the “Reads/Total SASPT-like reads (%)” value was 97.349%, the “Reads/Total pentapeptide reads (%)” value is recorded as 0.632% and the “Reads/Total peptide reads (%)” value came to 0.567%. On Aβ42-GFP (Table 2, after second round of sorting), the Number of reads stood at 25673.
Consider `C[C@@H]1NC(=O)[C@H]([C@@H](C)O)NC(=O)[C@H](CCCNC(=N)N)NC(=O)[C@H](CC(=O)O)NC(=O)[C@H](Cc2ccccc2)NC1=O` [AβC5-116, cyclo-TAFDR] (cyclo(AFDRT)), for which, at Aβ42, the “Aβ42 fibrils by TEM” value is “notably fewer, shorter and ill-developed”. Moreover, in assay [1], the “accumulation level of total Aβ, CL4176” value is “significant reduction of both Aβ species” and the “accumulation level of oligomeric Aβ, CL4176” value is on record as “significant reduction of both Aβ species”. Further, the “Reads/Total TXXXR reads (%)” value at Aβ42-GFP (after the second round of bacterial sorting, relative to total TXXXR reads) was 0.223%. The “Reads/Total pentapeptide reads (%)” value at Aβ42-GFP (after the second round of bacterial sorting, relative to total pentapeptide reads) turned out to be 0.105%. Besides, at Aβ42-GFP (after the second round of bacterial sorting, relative to total peptide reads), the “Reads/Total peptide reads (%)” value is listed as 0.094%. Moreover, at Aβ42-GFP (high-throughput sequencing of isolated pSICLOPPS-NuX1X2X3-X5 vectors after the second round of bacterial sorting for enhanced Aβ42-GFP fluorescence, selected cyclo-TXXXR pentapeptides), the Number of reads was 4,243.
